# Reference: BindingDB's records for doi:10.1021/jm060168g (Wyeth Research, 2006)
# Target: Huh7 (Homo sapiens)
# Experiment: Cytotoxicity against human Huh7 cell line containing HCV genotype 1b replicon
structure (smiles),measurement,value
"O=C(O)[C@@H]1CCCN1S(=O)(=O)c1cc(Cl)c(Cl)c(Cl)c1O [(S)-1-(3,4,5-trichloro-2-hydroxyphenylsulfonyl)pyrrolidine-2-carboxylic acid]",IC50,> 100 µM
